According to patent US20170042991A1, “COMPOSITIONS COMPRISING GLUTEN PEPTIDES AND USES THEREOF” (ImmusanT, Inc., priority 2014, published 2017):
Non-standard residues stand in square brackets, D forms with d. pGlu = O=C1CC[C@@H](C(=O)O)N1

How the values were obtained:
Type in all cases: cell-based, human
[1] = test system: PBMC; experiment: IFN-gamma ELISpot of PBMC, Day-6 after gluten challenge (Example 1); settings: DQ2.5+ CD
[2] = test system: whole blood; experiment: 96-well plate whole blood multiplex cytokine release, IFNγ (MAGPIX bead assay, Example 2); settings: Day-6, n = 8
[3] = test system: whole blood; experiment: 96-well plate whole blood multiplex cytokine release, IP-10 (MAGPIX bead assay, Example 2); settings: for IP-10 WB MAGPIX % max Mean: Day-6, n = 10; for Percent of maximal response, IP-10: after oral gluten challenge
[4] = test system: PBMC; experiment: Overnight IFNγ ELISpot assay with fresh PBMC (Example 2); settings: Day-6, n = 5
Procedure: Ten HLA-DQ2.5+ adults with celiac disease diagnosed according to the National Institutes of Health Consensus Statement 2004 were enrolled (Table 7).^22 Subjects were required to have followed gluten-free diet for at least one year and without known gluten exposures within the previous two-months. […] Full inclusion and exclusion criteria are described in Table 8. Each of 3 consecutive days subjects consumed 3 cookies that were prepared from approximately 4.5 g wheat gluten, 3 g barley flour protein, and 1.5 g rye flour protein. Blood was collected before and six days after commencing the oral challenge. Blood was collected using a 21G butterfly needle directly into 10 mL lithium heparin tubes (BD Vacutainer® Heparin tube #367880) and QuantiFERON® NIL (0591-0205, Cellestis Ltd., Chadstone VIC 3148 Australia) and QuantiFERON® MITOGEN (0593-0201, Cellestis Ltd.).
Overnight IFNγ ELISpot assays (Human IFN-γ ELISpotPRO kit, transparent, ALP; Mabtech AB, #3420-2APT-10) were performed using PBMC freshly separated from heparinized blood diluted 1:1 in PBS with 2% fetal bovine serum (Stemcell Technologies #07905; Vancouver, BC, V5Z 1B3, Canada) overlaid on density gradient medium (Ficoll-Paque™ PLUS; GE Healthcare Lice Sciences #:17-1440-02) in SepMate™-50 tubes (Stemcell Technologies #15460). PBMC (8 million/mL) were resuspended in serum-free medium with gentamicin and phenol red (X-VIVO™15; Lonza, Walkersville Mass. 21793). PBMC (0.4 million/50 μL/well) and incubated with 50 μL 80% X-vivol5, 0.2% DMSO and 20% PBS in three triplicate wells (“medium only”), or with 50 μL PHA-L 20 μg/ml or peptide at 2× final concentration in 80% X-vivol5, 0.2% DMSO and 20% PBS. Peptide solutions to be added to individual ELISpot wells were prepared in 96-well U-bottom plates (60 μL/well) that were then sealed with adhesive ELISA plate cover slips before replacing the plastic lid and being frozen at −80° C. 96-well plates containing peptide solutions were thawed at room temperature for 10 min while being centrifuged at 300 g immediately prior to being added to ELISpot wells. Peptide pools and mitogen were assessed in triplicate wells, and individual peptides were assessed in duplicate wells. X-VIVO™15 (50 μL) was incubated with 80% X-vivol5, 0.2% DMSO and 20% PBS (50 μL) in triplicate wells (“no PBMC” control). A Zeiss automated ELISpot counter was used to determine spot forming units (SFU) per well (Zellnet Inc., Fort Lee, N.J. 07024). Laboratory staff were unaware of the arrangement of peptide solutions in ELISpot wells during assay setup and plate counting.

[5] = test system: gluten-reactive T cells; experiment: Cytokine release assays taken together (IFNγ ELISpot, whole blood IFNγ and IP-10 release); settings: three cytokine release assays
Procedure: Gluten peptide solutions for addition to whole blood were arranged according to standardized templates in sterile 96-well U-bottom plates (30 μL/well). Plates were sealed with adhesive ELISA plate cover slips before the plastic lid was replaced and being frozen at −80° C. Whole blood assay (WBA) “medium” (1% DMSO in 90% PBS and 9% normal saline), mitogen (PHA-L, Sigma-Aldrich #L2769; St Louis Mo.) 100 μg/ml in WBA medium, and CEF diluted to 10 μg/ml in PBS with a final concentration of 1% DMSO were frozen separately in sterile cryovials. 96-well plates and cryovials with frozen incubation solutions were shipped on dry ice to the clinical site where blood was collected and incubations performed. Solutions were thawed at room temperature for 10 min just before being added to whole blood. 96-well plates were thawed while being centrifuged at 300 g to avoid surface condensation. A multi-channel pipette was used to efficiently transfer 25 μL of peptide solutions from the original 96-well plate to corresponding wells in a fresh sterile 96-well U-bottom plate. Once incubation solutions had been added, 225 μL of whole blood was added to each well and the plate transferred to incubate for 24 h at 37° C. 5% CO2. […] Individual peptides were incubated at a final assay concentration of 5 μM. Final concentrations of individual peptides assessed in P3 was 0.05-50 μg/mL, and in P14 and P13 pools 0.025-25 μM. The P71 pool was tested at between 0.005-10 μg/mL, the highest tested concentration being the maximal possible not exceeding 0.1% DMSO. Peptide pools, mitogen, and medium only were assessed in triplicate wells, and on Day-6 individual peptides were assessed in duplicate wells. Incubations were terminated after 24 h, and 96-well plates centrifuged at 300 g for 10 min. A total of approximately 90 to 120 μL of plasma was removed from each well taking care to avoid red cell contamination, and transferred into corresponding wells of two further 96-well plates (one with 30 μL/well and the residual in the second plate). Plasmas were frozen at −80° C. and later shipped on dry ice to the central lab where IP-10 and IFNγ multiplex bead assays were performed according to manufacturer's instructions using 25 μL plasma per well (Milliplex® MAP Human Cytokine/Chemokine Magnetic Bead Panel #HCYTOMAG-60k-02; EMD Millipore Corp., Billerica, Mass. 01821) and analysed with the Luminex® MAGPIX® System xPONENT® software (Luminex Corporation, Austin Tex. 78727). Plasma cytokine levels for each assay condition were expressed as the mean analyte concentration of each of the three replicate incubations. Laboratory staff were unaware of the arrangement of peptide solutions incubated with during assay setup and plate counting. […]

[6] = Peptide 2 re-synthesised by Pepscan, 10 μg/mL (5.45 μM)
[7] = individual peptides 5 μM, Peptide 2 = CSBio batch

Substance: (pE)QPFPQPEQPFPWQP-amide ([pGlu]QPFPQPEQPFPWQP-NH2; SMILES NC(=O)CC[C@H](NC(=O)[C@H](Cc1c[nH]c2ccccc12)NC(=O)[C@@H]1CCCN1C(=O)[C@H](Cc1ccccc1)NC(=O)[C@@H]1CCCN1C(=O)[C@H](CCC(N)=O)NC(=O)[C@H](CCC(=O)O)NC(=O)[C@@H]1CCCN1C(=O)[C@H](CCC(N)=O)NC(=O)[C@@H]1CCCN1C(=O)[C@H](Cc1ccccc1)NC(=O)[C@@H]1CCCN1C(=O)[C@H](CCC(N)=O)NC(=O)[C@@H]1CCC(=O)N1)C(=O)N1CCC[C@H]1C(N)=O) [Peptide 2, CSBio and Pepscan batches tested separately]
- Peptide-specific IFN-gamma ELISpot response ([1]; Subject 1, 10 ug/ml): 0 spot forming units per 0.8 million PBMC
- Peptide-specific IFN-gamma ELISpot response ([1]; Subject 2, 10 ug/ml): 1 spot forming units per 0.8 million PBMC
- Peptide-specific IFN-gamma ELISpot response ([1]; Subject 3, 10 ug/ml): 2 spot forming units per 0.8 million PBMC
- Peptide-specific IFN-gamma ELISpot response ([1]; Subject 4, 10 ug/ml): 17 spot forming units per 0.8 million PBMC
- Peptide-specific IFN-gamma ELISpot response ([1]; Subject 5, 10 ug/ml): 0 spot forming units per 0.8 million PBMC
- Peptide-specific IFN-gamma ELISpot response ([1]; Subject 6, 10 ug/ml): 2 spot forming units per 0.8 million PBMC
- Peptide-specific IFN-gamma ELISpot response ([1]; Subject 7, 10 ug/ml): 2 spot forming units per 0.8 million PBMC
- Peptide-specific IFN-gamma ELISpot response ([1]; Subject 8, 10 ug/ml): 4 spot forming units per 0.8 million PBMC
- Peptide-specific IFN-gamma ELISpot response ([1]; Subject 9, 10 ug/ml): 1 spot forming units per 0.8 million PBMC
- Peptide-specific IFN-gamma ELISpot response ([1]; Subject 10, 10 ug/ml): 0 spot forming units per 0.8 million PBMC
- IFNγ WB MAGPIX % max Mean [2, 6]: 27 % max
- IFNγ WB MAGPIX % max Mean [2, 7]: 23 % max
- IP-10 WB MAGPIX % max Mean [3, 6]: 49 % max
- Percent of maximal response, IP-10 ([3]; Subject 3, Max. 9492 pg/mL): ≥ 100 % of max
- Percent of maximal response, IP-10 ([3]; Subject 4, Max. 9463 pg/mL): ≥ 100 % of max
- IP-10 WB MAGPIX % max Mean [3, 7]: 43 % max
- IFNγ ELISpot % max Mean [4, 6]: 25 % max
- IFNγ ELISpot % max Mean [4, 7]: 19 % max
- activity as a fraction of that of Peptide 14 [5]: one-half to one-fifth
